# Columns and labels:
# Format in all cases: functional
# Candida albicans [1] = experiment: Antifungal activity against Candida albicans assessed as diameter of inhibition zone at 50 to 100 ug/ml by disc-diffusion method; conditions: dose 50-100 µg/ml
# Aspergillus flavus = experiment: Antifungal activity against Aspergillus flavus assessed as diameter of inhibition zone at 50 to 100 ug/ml by disc-diffusion method; conditions: dose 50-100 µg/ml
# Escherichia coli [2] = experiment: Antibacterial activity against Escherichia coli assessed as reduction in bacterial growth
# Aspergillus niger [3] = experiment: Antifungal activity against Aspergillus niger assessed as fungal growth inhibition
# Staphylococcus aureus [4] = experiment: Antimicrobial activity against Staphylococcus aureus assessed as diameter of inhibition zone incubated for 24 hrs by disc-diffusion method
# Escherichia coli [5] = experiment: Antimicrobial activity against Escherichia coli assessed as diameter of inhibition zone incubated for 24 hrs by disc-diffusion method
# Klebsiella pneumoniae = experiment: Antimicrobial activity against Klebsiella pneumoniae assessed as diameter of inhibition zone incubated for 24 hrs by disc-diffusion method
# Candida albicans [6] = experiment: Antimicrobial activity against Candida albicans assessed as diameter of inhibition zone incubated for 24 hrs by disc-diffusion method
# Bacillus subtilis = experiment: Antibacterial activity against Bacillus subtilis assessed as reduction in bacterial growth
# Micrococcus luteus = experiment: Antibacterial activity against Micrococcus luteus assessed as reduction in microbial growth
# Proteus vulgaris = experiment: Antibacterial activity against Proteus vulgaris assessed as reduction in bacterial growth
# Staphylococcus aureus [7] = experiment: Antibacterial activity against Staphylococcus aureus MTCC 3160 assessed as reduction in bacterial growth
# Candida albicans [8] = experiment: Antifungal activity against Candida albicans MTCC 227 assessed as inhibition of fungal growth
# Candida albicans [9] = experiment: Antifungal activity against Candida albicans assessed as fungal growth inhibition by CLSI based method
# Cryptococcus neoformans [10] = experiment: Antifungal activity against Cryptococcus neoformans assessed as fungal growth inhibition by CLSI based method
# Candida albicans [11] = experiment: Antifungal activity against Candida albicans Y0109 assessed as reduction in fungal growth incubated for 24 hrs by NCCLS based assay
# Candida albicans [12] = experiment: Antifungal activity against Candida albicans SC5314 assessed as reduction in fungal growth incubated for 24 hrs by NCCLS based assay
# Nakaseomyces glabratus [13] = experiment: Antifungal activity against Candida glabrata 537 assessed as reduction in fungal growth incubated for 72 hrs by NCCLS based assay
# Cryptococcus neoformans [14] = experiment: Antifungal activity against Cryptococcus neoformans 32609 assessed as reduction in fungal growth incubated for 72 hrs by NCCLS based assay
# Aspergillus fumigatus [15] = experiment: Antifungal activity against Aspergillus fumigatus 7544 assessed as reduction in fungal growth incubated for 5 to 7 days by NCCLS based assay; conditions: time 5-7 day
# Trichophyton rubrum = experiment: Antifungal activity against Trichophyton rubrum assessed as reduction in fungal growth incubated for 5 to 7 days by NCCLS based assay; conditions: time 5-7 day
# Nannizzia gypsea = experiment: Antifungal activity against Microsporum gypseum assessed as reduction in fungal growth incubated for 5 to 7 days by NCCLS based assay; conditions: time 5-7 day
# Candida albicans [16] = experiment: Antifungal activity against Candida albicans IFRC 194 assessed as reduction in fungal growth by CLSI based micro-dilution asssay
# Nakaseomyces glabratus [17] = experiment: Antifungal activity against Candida glabrata assessed as reduction in fungal growth by CLSI based micro-dilution asssay
# Candida parapsilosis = experiment: Antifungal activity against Candida parapsilosis IFRC 1269 assessed as reduction in fungal growth by CLSI based micro-dilution asssay; conditions: Lodderomyces parapsilosis
# Pichia kudriavzevii = experiment: Antifungal activity against Candida krusei IFRC 1012 assessed as reduction in fungal growth by CLSI based micro-dilution asssay
# Candida tropicalis = experiment: Antifungal activity against Candida tropicalis IFRC 1057 assessed as reduction in fungal growth by CLSI based micro-dilution asssay
# Aspergillus fumigatus [18] = experiment: […] activity against Aspergillus fumigatus NCIM 2081 assessed as reduction in […] by micro-broth dilution method
# Aspergillus niger [19] = experiment: […] activity against Aspergillus niger NCIM 2191 assessed as reduction in […] by micro-broth dilution method
# Candida albicans [20] = experiment: Antifungal activity against Candida albicans NCIM 2087 assessed as fungal growth inhibition
# Staphylococcus aureus [21] = experiment: Antibacterial activity against Staphylococcus aureus assessed as reduction in bacterial growth incubated for 24 hrs by broth microdilution method
# Escherichia coli [22] = experiment: Antibacterial activity against Escherichia coli ATCC 8739 assessed as reduction in bacterial growth by micro-broth dilution method
# Pseudomonas aeruginosa = experiment: Antibacterial activity against Pseudomonas aeruginosa MCCB 0035 assessed as reduction in bacterial growth by micro-broth dilution method
# Staphylococcus aureus [23] = experiment: Antibacterial activity against Staphylococcus aureus ATCC 29213 assessed as reduction in bacterial growth by micro-broth dilution method
smiles,measurement,setting,value
CCOC(=O)C1=C(C)Oc2nc(C)n(Cc3cn(-c4cccc(F)c4)nn3)c(=O)c2C1c1ccc([N+](=O)[O-])cc1 (stereo not drawn),diameter of the inhibition zone (DIZ),Candida albicans [1],12 mm
same,diameter of the inhibition zone (DIZ),Aspergillus flavus,12 mm
O=C(Cn1cc(COc2ccc(C(=O)/C=C/c3ccccc3)cc2)nn1)Nc1ccc([N+](=O)[O-])cc1,MIC,Escherichia coli [2],12 µM
same,MIC,Aspergillus niger [3],12 µM
Sc1nnc(-c2ccc(Cl)cc2)n1/N=C/c1ccco1,diameter of the inhibition zone (DIZ),Staphylococcus aureus [4],4 mm
same,diameter of the inhibition zone (DIZ),Escherichia coli [5],4 mm
same,diameter of the inhibition zone (DIZ),Klebsiella pneumoniae,4 mm
same,diameter of the inhibition zone (DIZ),Candida albicans [6],4 mm
COc1ccc(-c2cc(-c3nnn(-c4ccccc4)c3C)no2)cc1,MIC,Bacillus subtilis,1.56 mg/L
same,MIC,Micrococcus luteus,1.56 mg/L
same,MIC,Proteus vulgaris,1.56 mg/L
OC(Cn1cncn1)(Cn1cncn1)c1ccc(F)cc1F [FLUCONAZOLE],MIC,Staphylococcus aureus [7],40 µM
same,MIC,Aspergillus niger [3],20.4 mg/L
same,MIC,Candida albicans [8],40 µM
same,MIC,Candida albicans [9],4 mg/L
same,MIC,Cryptococcus neoformans [10],4 mg/L
same,MIC80,Candida albicans [11],0.25 mg/L
same,MIC80,Candida albicans [12],0.5 mg/L
same,MIC80,Nakaseomyces glabratus [13],2 mg/L
same,MIC80,Cryptococcus neoformans [14],1 mg/L
same,MIC80,Aspergillus fumigatus [15],> 64 mg/L
same,MIC80,Trichophyton rubrum,8 mg/L
same,MIC80,Nannizzia gypsea,32 mg/L
same,MIC,Candida albicans [16],0.5 mg/L
same,MIC,Nakaseomyces glabratus [17],0.5 mg/L
same,MIC,Candida parapsilosis,0.5 mg/L
same,MIC,Pichia kudriavzevii,0.5 mg/L
same,MIC,Candida tropicalis,0.5 mg/L
same,MIC,Aspergillus fumigatus [18],16 mg/L
same,MIC,Aspergillus niger [19],4 mg/L
same,MIC,Candida albicans [20],1 mg/L
Cc1ccccc1-n1cc(Cn2c3ccccc3c(=O)c3ccccc32)nn1,MIC,Staphylococcus aureus [21],10.1 mg/L
O=c1cc(-c2ccccc2)c2cc(F)ccc2n1Cc1nnc2n1N=C(c1ccccc1)CS2,MIC,Escherichia coli [22],8 mg/L
same,MIC,Pseudomonas aeruginosa,8 mg/L
same,MIC,Staphylococcus aureus [23],2 mg/L
same,MIC,Aspergillus fumigatus [18],4 mg/L
same,MIC,Aspergillus niger [19],4 mg/L
same,MIC,Candida albicans [20],2 mg/L
